Source: paper PMC2692652 (Biochemistry, 2009)

Experiments:
[1] = molecular target: T1, Native M. tb PGDH (Mycobacterium tuberculosis, UniProt P9WNX3); test: Stopped-flow time course of NADH turnover with kinetic simulation to Scheme 2; format: biochemical; conditions: for k+i / k-i: from simulation
[2] = molecular target: Human PGDH (Homo sapiens, UniProt O43175); test: Inhibition of human PGDH; format: biochemical; conditions: unpublished observation
[3] = molecular target: T1, Native M. tb PGDH; conditions: read-out: Ki, HPAP (substrate inhibition); cited from earlier work
[4] = tested on: M. tb PGDH; conditions: cited from earlier work
[5] = molecular target: T1, Native M. tb PGDH; format: biochemical; conditions: HPAP 400 μM, NADH varied, 200 mM potassium phosphate, pH 7.5
[6] = molecular target: T1, Native M. tb PGDH; format: binding; conditions: no substrate, excitation 295 nm, fluorescence 420 nm, pH 7.5
[7] = molecular target: M. tb PGDH; test: Transient binding of NADH to the enzyme in the absence of substrate; parameters: species or system Mycobacterium tuberculosis; conditions: read-out: Kd of NADH at the second (anion-binding) site; calculated from the rates of NADH binding determined in the absence of substrate
[8] = tested on: M. tb PGDH; conditions: cited from earlier work; remark: listed apart in the source
[9] = molecular target: T1, Native M. tb PGDH; format: biochemical; conditions: high HPAP level where substrate inhibition is significant, pH 7.5
[10] = step ES + N = ESN (NADH to active site)
[11] = step ES + N = NES (NADH to second site)
[12] = step ESN + N = NESN (NADH to second site)
[13] = step SES + N = SESN (NADH to active site)

T1 sequence (P9WNX3 whole entry): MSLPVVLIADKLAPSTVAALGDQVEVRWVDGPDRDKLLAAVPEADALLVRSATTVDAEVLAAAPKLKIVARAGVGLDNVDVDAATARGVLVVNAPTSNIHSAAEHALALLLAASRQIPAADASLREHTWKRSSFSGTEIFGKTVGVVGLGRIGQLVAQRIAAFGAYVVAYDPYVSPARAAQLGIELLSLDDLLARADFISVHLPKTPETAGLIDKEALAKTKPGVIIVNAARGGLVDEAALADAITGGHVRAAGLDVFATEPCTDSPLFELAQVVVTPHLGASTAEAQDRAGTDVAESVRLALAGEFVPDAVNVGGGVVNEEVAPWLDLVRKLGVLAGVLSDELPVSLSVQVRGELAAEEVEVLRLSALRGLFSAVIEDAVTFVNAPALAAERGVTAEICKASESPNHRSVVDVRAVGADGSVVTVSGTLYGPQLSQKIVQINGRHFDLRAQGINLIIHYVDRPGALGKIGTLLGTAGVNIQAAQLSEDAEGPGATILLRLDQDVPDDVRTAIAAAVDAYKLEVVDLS
Chain of Human PGDH (O43175 whole entry): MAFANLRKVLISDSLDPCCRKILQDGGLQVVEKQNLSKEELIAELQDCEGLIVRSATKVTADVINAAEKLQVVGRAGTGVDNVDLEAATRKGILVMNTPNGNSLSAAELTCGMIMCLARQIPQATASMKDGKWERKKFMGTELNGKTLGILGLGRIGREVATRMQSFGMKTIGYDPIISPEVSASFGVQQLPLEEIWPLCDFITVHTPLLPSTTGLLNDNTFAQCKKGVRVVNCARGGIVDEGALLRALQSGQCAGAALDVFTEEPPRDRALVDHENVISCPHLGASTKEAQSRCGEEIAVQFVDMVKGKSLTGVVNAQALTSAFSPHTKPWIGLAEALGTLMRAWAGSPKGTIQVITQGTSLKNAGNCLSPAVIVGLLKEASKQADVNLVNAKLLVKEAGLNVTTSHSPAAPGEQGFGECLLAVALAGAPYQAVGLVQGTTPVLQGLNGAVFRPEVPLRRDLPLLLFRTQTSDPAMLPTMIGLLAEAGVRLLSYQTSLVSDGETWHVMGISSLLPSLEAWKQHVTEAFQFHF

Question: For hydroxypyruvic acid phosphate [HPAP], which Kd ([1]; read-out: Kd for HPAP at the second (anion-binding) site) is on record?
Answer: ~8 µM

Question: What about the “Substrate inhibition by HPAP” value [2] of the same compound?
Answer: displays substrate inhibition

Question: And the Ki [3]?
Answer: 950 ± 120 µM

Question: Which “Effect of tartrate binding to the anion-binding site on rate of catalysis” value [4] does the source give for O=C(O)C(O)C(O)C(=O)O (stereo not shown) [tartrate] here?
Answer: does not effect the rate of catalysis

Question: Which “K0.5, Activity vs NADH” value [5] does the source give for NADH here?
Answer: 106 ± 5 µM

Question: What about the “n (Hill coefficient), Activity vs NADH” value [5] of the same compound?
Answer: 2.5 ± 0.2

Question: What about the “K0.5, FRET vs NADH” value [6] of the same compound?
Answer: 3.2 ± 0.1 µM

Question: And the “n (Hill coefficient), FRET vs NADH” value [6]?
Answer: 1.6 ± 0.1

Question: And the “k+i” value [1, 10]?
Answer: 4.09e+08 M⁻¹ s⁻¹

Question: And the k-i [1, 10]?
Answer: 70 s⁻¹

Question: And the “k+i” value [1, 11]?
Answer: 0 M⁻¹ s⁻¹

Question: And the k-i [1, 11]?
Answer: 0 s⁻¹

Question: What about the “k+i” value [1, 12] of the same compound?
Answer: 0 M⁻¹ s⁻¹

Question: What about the k-i [1, 12] of the same compound?
Answer: 0 s⁻¹

Question: What about the “k+i” value ([1]; step NES + N = NESN (NADH to active site)) of the same compound?
Answer: 7.59e+08 M⁻¹ s⁻¹

Question: And the “k+i” value [1, 13]?
Answer: 190000 M⁻¹ s⁻¹

Question: And the k-i [1, 13]?
Answer: 3 s⁻¹

Question: And the Kd [7]?
Answer: ~0.6 µM

Question: What about the “k+i” value [8] of the same compound?
Answer: 0.37 ^c μM^-1s^-1

Question: What about the k-i [8] of the same compound?
Answer: 0.22 ^c s^-1

Question: With N[C@@H](CO)C(=O)O [L-serine] as the compound, how does the “n (Hill coefficient), serine inhibition, High Substrate” value [9] read?
Answer: 1.5 ± 0.1

Question: What about the “Inhibition by L-serine” value [2] of the same compound?
Answer: not inhibited
